The test system of the experiment is Ctenocephalides felis. Nature of the experiment: In-vivo study: topical spot-on formulations on beagle dogs infested with fleas on Day 30. The conditions noted are these: compound alone, 30 mg/kg topical, Day 30 infestation (Table 1). As for the experimental part: In-vivo studies were conducted in compliance with International Cooperation on Harmonisation of Technical Requirements for Registration of Veterinary Products (VICH) and Good Clinical Practice (GCP) principles and practices.
In one in-vivo study, topical spot-on formulations were prepared using dipropylene glycol monomethyl ether (DPGMME) and ethanol (80:20% v/v) and butylated hydroxyl anisol (BHA) 0.1% w/v. Control was vehicle. Treatment T02 was 30 mg/kg (150 mg/mL) compound (1A1); T03 was 20 mg/kg (100 mg/mL) compound (1A1), 6.7 mg/kg (33.5 mg/mL) fipronil, and 6 mg/kg (30 mg/mL) s-methoprene; T04 was 30 mg/kg (150 mg/mL) compound (1A1), 6.7 mg/kg (50.4 mg/mL) fipronil, and 6 mg/kg (45 mg/mL) s-methoprene; and T05 was 30 mg/kg (150 mg/mL) compound (1A1), 6.7 mg/kg (33.5 mg/mL) fipronil and 6 mg/kg (30 mg/mL) s-methoprene. A total of 40 beagle dogs (8 dogs/treatment group) were used. Dogs were individually housed. Treatments were administered on Day 0. On Day 30, dogs were infested with 100 Ctenocephalides felis unfed adult fleas. Dead and non-moving fleas were counted at 24 and 48 hours after infestation (Table 1).

Turning to `Cc1cccc([C@H](C)c2ncc[nH]2)c1C` [compound (1A1), 2-[(1S)-1-(2,3-dimethylphenyl)ethyl]-1H-imidazole], the intrinsic flea activity result is “lacks intrinsic flea activity”.

These data come from patent US20100041712A1, “SUBSTITUTED IMIDAZOLE COMBINATIONS” (PFIZER INC., priority 2008, published 2010).
